SMILES strings stand for the structures. Bounds are passed on as bounds.

Assay type in all cases: cell-based
Assay [1] addresses T1, BRAF V600E (Homo sapiens, UniProt P15056, V600E).
T1 construct: endogenous C-terminal HiBiT fusion tag on BRAF V600E allele; endogenous in cells; host or cells: A375 clone 1F10 (CRISPR-Cas9 knock-in of the HiBiT tag; parental A375 from ATCC)
Kind of assay: BRAF HiBiT degradation assay, C-terminal HiBiT-tagged BRAF V600E A375 cells (clone 1F10), Nano-Glo HiBiT Lytic assay. Particulars: for Dmax: A-375. The method in brief: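 Degradation is measured as loss of HiBiT signal from BRAF V600E tagged at its native locus in A375 cells. Doses span 1 μM to 0.01 nM in half-log steps, in duplicate. Percent remaining is calculated against DMSO controls after subtracting untagged A375 background, and curve fitting yields DC50 and observed Dmax.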
(In general: With HiBiT, luminescence reflects the tagged protein that the partner subunit can reach.)

Assay [2] concerns the target T2, BRAF G466V (Homo sapiens, UniProt P15056, G466V).
T2 construct: Horizon Discovery (HCT-116 BRAF−/− cells); host or cells: HCT-116 BRAF−/− cells, clone 8, lentiviral transduction
In words: BRAF HiBiT degradation assay, C-terminal HiBiT-tagged BRAF G466V overexpressed in HCT-116 BRAF−/− cells (clone 8), Nano-Glo HiBiT Lytic assay. The method in brief: (§1)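 First, the stable HiBiT-tagged cells were plated and incubated for 24 h. Next, compound was added in duplicate as an 11-point series with a 1 μM top concentration. Lytic detection followed, with DMSO-treated parental cells used for background. Finally, DC50 and Obs. Dmax relative to DMSO were derived from the % protein remaining curves.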

The target in assay [3] is T3, BRAF G469A (Homo sapiens, UniProt P15056, G469A).
T3 construct: Horizon Discovery (HCT-116 BRAF−/− cells); host or cells: HCT-116 BRAF−/− cells, clone 34, lentiviral transduction
In words: BRAF HiBiT degradation assay, C-terminal HiBiT-tagged BRAF G469A overexpressed in HCT-116 BRAF−/− cells (clone 34), Nano-Glo HiBiT Lytic assay. The method in brief: as §1

In assay [4] the target is T4, BRAF D594G (Homo sapiens, UniProt P15056, D594G).
T4 construct: Horizon Discovery (HCT-116 BRAF−/− cells); host or cells: HCT-116 BRAF−/− cells, clone 63, lentiviral transduction
Kind of assay: BRAF HiBiT degradation assay, C-terminal HiBiT-tagged BRAF D594G overexpressed in HCT-116 BRAF−/− cells (clone 63), Nano-Glo HiBiT Lytic assay. The gist of the method:
as §1

Where [5] appears, read: A375 (BRAF V600E, Class 1), DC50 at 50% degradation.
[6] abbreviates: A375 (BRAF V600E, Class 1), observed Dmax, % protein degraded relative to DMSO control.
[7] abbreviates: BRAF G466V (Class 3), HCT-116 BRAF−/− cells, DC50 at 50% degradation.
Where [8] appears, read: BRAF G466V (Class 3), HCT-116 BRAF−/− cells, observed Dmax relative to DMSO control.
Setting [9] is: BRAF G469A (Class 2), HCT-116 BRAF−/− cells, DC50 at 50% degradation.
Setting [10] is: BRAF G469A (Class 2), HCT-116 BRAF−/− cells, observed Dmax relative to DMSO control.
Setting [11] is: BRAF D594G (Class 3), HCT-116 BRAF−/− cells, DC50 at 50% degradation.
[12] abbreviates: BRAF D594G (Class 3), HCT-116 BRAF−/− cells, observed Dmax relative to DMSO control.
The mark [13] stands for this setting: A375 (BRAF V600E), DC50 at 50%: fitted conc. at Y=50.
[14] abbreviates: A375 (BRAF V600E), percentage protein degraded at maximal compound effect relative to DMSO.
[15] abbreviates: BRAF G466V, DC50 at 50%: fitted conc. at Y=50.
The mark [16] stands for this setting: HCT-116, BRAF G466V, percentage protein degraded at maximal compound effect relative to DMSO.
Setting [17] is: Class 2, BRAF G469A, DC50 at 50%: fitted conc. at Y=50.
[18] abbreviates: HCT-116, Class 2, BRAF G469A, percentage protein degraded at maximal compound effect relative to DMSO.
Setting [19] is: BRAF D594G, DC50 at 50%: fitted conc. at Y=50.
[20] abbreviates: HCT-116, BRAF D594G, percentage protein degraded at maximal compound effect relative to DMSO.

T3 sequence (P15056 whole entry G469A): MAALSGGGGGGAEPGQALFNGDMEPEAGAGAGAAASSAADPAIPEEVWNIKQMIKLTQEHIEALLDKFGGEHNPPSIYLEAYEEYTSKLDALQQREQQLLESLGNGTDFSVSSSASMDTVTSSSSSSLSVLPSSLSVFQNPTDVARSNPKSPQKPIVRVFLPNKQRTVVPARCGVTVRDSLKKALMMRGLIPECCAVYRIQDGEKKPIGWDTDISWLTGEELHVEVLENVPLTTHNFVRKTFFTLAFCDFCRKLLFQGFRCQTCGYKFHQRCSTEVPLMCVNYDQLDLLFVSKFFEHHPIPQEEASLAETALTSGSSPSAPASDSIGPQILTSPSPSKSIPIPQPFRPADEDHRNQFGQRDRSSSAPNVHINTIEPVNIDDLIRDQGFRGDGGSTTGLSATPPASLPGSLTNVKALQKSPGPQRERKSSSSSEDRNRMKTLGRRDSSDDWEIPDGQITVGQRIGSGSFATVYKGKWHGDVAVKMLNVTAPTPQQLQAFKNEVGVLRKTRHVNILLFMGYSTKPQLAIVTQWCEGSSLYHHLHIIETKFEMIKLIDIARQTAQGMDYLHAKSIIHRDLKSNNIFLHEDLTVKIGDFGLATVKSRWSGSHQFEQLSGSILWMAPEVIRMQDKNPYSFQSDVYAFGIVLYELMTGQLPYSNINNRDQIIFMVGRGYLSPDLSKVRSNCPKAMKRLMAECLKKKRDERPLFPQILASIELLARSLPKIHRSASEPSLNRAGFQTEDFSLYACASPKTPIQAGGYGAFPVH
T2 sequence (P15056 whole entry G466V): as the sequence (P15056 whole entry G469A) above, with G466V, A469G counted along it
T4 sequence (P15056 whole entry D594G): as the sequence (P15056 whole entry G469A) above, with A469G, D594G counted along it
T1 sequence (P15056 whole entry V600E, the tested form may be a part): as the sequence (P15056 whole entry G469A) above, with A469G, V600E counted along it

Usually DC50 stands for the midpoint of the concentration-degradation curve. The term Dmax denotes the largest share of the target that was removed. Turning to `O=C1CC[C@H](c2ccc(N3CCC(CN4CCN(c5ccc(-n6cc(-c7cc(Cl)cc(NS(=O)(=O)N8CCCC8)c7F)c(-c7ccncc7)n6)cn5)CC4)CC3)cc2)C(=O)N1` [Compound 351, N-{5-chloro-3-[1-(6-{4-[(1-{4-[(3R)-2,6-dioxopiperidin-3-yl]phenyl}piperidin-4-yl)methyl]piperazin-1-yl}pyridin-3-yl)-3-(pyridin-4-yl)-1H-pyrazol-4-yl]-2-fluorophenyl}pyrrolidine-1-sulfonamide], the DC50 in assay [1] (setting [5]) is under 10 nM; in assay [2] (setting [7]), under 10 nM; in assay [3] (setting [9]), 10 to 50 nM; in assay [4] (setting [11]), under 10 nM. In addition, the Dmax in assay [1] (setting [6]) is over 70%; in assay [2] (setting [8]) it was over 70%; in assay [3] (setting [10]), 30 to 70%; in assay [4] (setting [12]), 30 to 70%.

Take `CCCS(=O)(=O)Nc1cccc(-c2cn(C3CCN(C(=O)C4CCN(CC5CCN(c6ccc(C7CCC(=O)NC7=O)cn6)CC5)CC4)CC3)nc2-c2ccncc2)c1F` (racemic) [Compound 6, Rac-N-{3-[1-(1-{1-[(1-{5-[(3R)-2,6-dioxopiperidin-3-yl]pyridin-2-yl}piperidin-4-yl)methyl]piperidine-4-carbonyl}piperidin-4-yl)-3-(pyridin-4-yl)-1H-pyrazol-4-yl]-2-fluorophenyl}propane-1-sulfonamide]: the DC50 in assay [1] (setting [13]) was 10 to 50 nM; in assay [2] (setting [15]), over 500 nM; in assay [3] (setting [17]) it was over 500 nM; in assay [4] (setting [19]) it was over 500 nM. The Dmax in assay [1] (setting [14]) was over 70%; in assay [2] (setting [16]), 30 to 70%; in assay [3] (setting [18]), under 30%; in assay [4] (setting [20]), 30 to 70%.

As to `CCCS(=O)(=O)Nc1cccc(-c2nc(C(C)(C)C)sc2-c2ccnc(Nc3ccc(N4CCN(C(=O)C5CCN(c6ccc(C7CCC(=O)NC7=O)cn6)CC5)CC4)c(F)c3)n2)c1F` (racemic) [Compound 57, Rac-N-(3-{2-tert-butyl-5-[2-({4-[4-(1-{5-[(3R)-2,6-dioxopiperidin-3-yl]pyridin-2-yl}piperidine-4-carbonyl)piperazin-1-yl]-3-fluorophenyl}amino)pyrimidin-4-yl]-1,3-thiazol-4-yl}-2-fluorophenyl)propane-1-sulfonamide], the DC50 in assay [1] (setting [13]) is under 10 nM; in assay [2] (setting [15]), over 500 nM; in assay [3] (setting [17]), over 500 nM; in assay [4] (setting [19]), over 500 nM. Moreover, the Dmax in assay [1] (setting [14]) is over 70%; in assay [2] (setting [16]), 30 to 70%; in assay [3] (setting [18]) it was 30 to 70%; in assay [4] (setting [20]), 30 to 70%.

For the compound `CCN(C)S(=O)(=O)Nc1cc(Cl)cc(-c2cn(-c3ccc(N4CCN(CC5CCN(c6ccc(C7CCC(=O)NC7=O)cn6)CC5)CC4)cn3)nc2-c2ccncc2)c1F` (racemic) [Compound 312, Rac-(3R)-3-(6-{4-[(4-{6-[4-(5-chloro-3-{[ethyl(methyl)sulfamoyl]amino}-2-fluorophenyl)-3-(pyridin-4-yl)-1H-pyrazol-1-yl]pyridin-3-yl}piperazin-1-yl)methyl]piperidin-1-yl}pyridin-3-yl)piperidine-2,6-dione], the DC50 in assay [1] (setting [5]), in assay [2] (setting [7]), in assay [3] (setting [9]) and in assay [4] (setting [11]) was under 10 nM in each case. The Dmax in assay [1] (setting [6]) was over 70%; in assay [2] (setting [8]) it was over 70%; in assay [3] (setting [10]) it was 30 to 70%; in assay [4] (setting [12]) it was over 70%.

`C[C@@H]1CN(c2ccc(-n3cc(-c4cc(Cl)cc(NS(=O)(=O)N5CCCC5)c4F)c(-c4ccncc4)n3)cc2)CCN1CC1CCN(c2ccc(N3CCC(=O)NC3=O)cc2)CC1` [Compound 319, N-[5-chloro-3-(1-{4-[(3R)-4-({1-[4-(2,4-dioxo-1,3-diazinan-1-yl)phenyl]piperidin-4-yl}methyl)-3-methylpiperazin-1-yl]phenyl}-3-(pyridin-4-yl)-1H-pyrazol-4-yl)-2-fluorophenyl]pyrrolidine-1-sulfonamide]: the half-maximal degradation concentration (DC50) is under 10 nM in assay [1] (setting [5]), under 10 nM in assay [2] (setting [7]), 50 to 500 nM in assay [3] (setting [9]) and under 10 nM in assay [4] (setting [11]). Also, the Dmax in assay [1] (setting [6]) was over 70%; in assay [2] (setting [8]), over 70%; in assay [3] (setting [10]), 30 to 70%; in assay [4] (setting [12]), 30 to 70%.

With `CCCS(=O)(=O)Nc1cccc(-c2nc(C(C)(C)C)sc2-c2ccnc(NC3CC4(CCN(C(=O)CN5CCC(c6ccc(NC7CCC(=O)NC7=O)cc6)CC5)CC4)C3)n2)c1F` (racemic) [Compound 131, Rac-N-[3-(2-tert-butyl-5-{2-[(7-{2-[4-(4-{[(3R)-2,6-dioxopiperidin-3-yl]amino}phenyl)piperidin-1-yl]acetyl}-7-azaspiro[3.5]nonan-2-yl)amino]pyrimidin-4-yl}-1,3-thiazol-4-yl)-2-fluorophenyl]propane-1-sulfonamide], the DC50 was 10 to 50 nM in assay [1] (setting [13]), over 500 nM in assay [2] (setting [15]), over 500 nM in assay [3] (setting [17]) and over 500 nM in assay [4] (setting [19]). For the same compound, the Dmax was over 70% in assay [1] (setting [14]), 30 to 70% in assay [2] (setting [16]), under 30% in assay [3] (setting [18]) and under 30% in assay [4] (setting [20]).

The record behind these values is US20260317324A1, “BIFUNCTIONAL COMPOUNDS FOR DEGRADING BRAF VIA UBIQUITIN PROTEOSOME PATHWAY” (Nurix Therapeutics, Inc., priority 2023, published 2026).
